Usually LD50 stands for the dose expected to kill half of the subjects tested.

Series [1] deals with spontaneously hypertensive rats. The series can be described thus: Effect on spontaneously hypertensive rats (blood pressure, heart rate, body weight). Format: in vivo. The following applies: for antihypertensive effect: separate experiment (not illustrated). As for the experimental part: Male spontaneously hypertensive rats (hereinafter referred to as SHR, weighing about 190 g) eight weeks old were used in groups of 5 animals. Platonin was orally adminstered at a dose of 1 µg/kg three times a week for 13 weeks. A physiological saline alone was adminstered to a control group in the same manner as above. During the administration period, blood pressure, heart rate and body weight were measured at timed intervals.
Blood pressure, systolic, was bloodlessly measured in the caudal artery using a rat blood pressure manometer (made by Narco Biosystems Co.), and heart rate using a polygraph (made by Nippon Kohden Kabushiki Kaisha).

Series [2] has as its system normal rats (Wistar-Kyoto). The series can be described thus: Effect on blood pressure in normal rats (also heart rate, body weight). Format: in vivo. On the procedure:
Male Wistar-Kyoto rats eight weeks old (weighing about 190 g) were used in groups of 5 animals. Platonin was orally administered at a dose of 1 µg/kg three times a week for 8 weeks. A physiological saline alone was administered to a control group in the same manner as above. During the administration period, blood pressure, heart rate and body weight were measured at timed intervals. Blood pressure, systolic, was bloodlessly measured in the caudal artery using a rat blood pressure manometer (made by Narco Biosystems Co.), and heart rate using a polygraph (made by Nippon Kohden Kabushiki Kaisha).

Another series can be described thus: Acute toxicity. To be noted: rat, in vivo, male Wistar rats, suspended in 5 % gum arabic, observed 7 days, method of Van der Warden. On the procedure: Eight male Wistar rats (weighing about 150 g) per group were used. Platonin suspended in 5 % gum arabic was administered intraperitonealy, or orally using a gastric tube. […] The LD50 value was calculated by the method of Van der Warden.

Setting [3] is: normal rats, in comparison with the control group.

Like-named read-outs stand apart in the source and are kept apart here.

As to `CCCCCCCN1C(C)=CS\C1=C/C=C(/C=C/c1scc(C)[n+]1CCCCCCC)c1scc(C)[n+]1CCCCCCC`, the acute hypotensive effect result in series [1] (SHR, also at a higher dose, time for the antihypertensive effect to be revealed was the same) is recorded as “any acute hypotensive effect was not found”. The Body weight change entry in series [1] (SHR, oral, 1 µg/kg three times a week, Fig. 2) is reported as “no influence on body weight gain”; in series [1] (SHR, oral, 1 to 100 ug/kg three times a week (not illustrated)) it was “no effect on body weight”. Besides, the “Effect on heart rate” value in series [1] (SHR, oral, 1 µg/kg three times a week, any time point during administration, compared with control group) was “any significant change in heart rate was not observed”. In addition, the antihypertensive effect result in series [1] (SHR, after about 4 weeks of administration) is recorded as “significant decrease in blood pressure”; in series [1] (SHR, till the 3rd week of administration), “no effect at all”. The “Effect on blood pressure” value in series [1] (male SHR, oral, 1 ug/kg three times a week for 13 weeks, systolic, caudal artery, each measurement time point after 5 weeks, Fig. 1) is recorded as “remarkable blood pressure fall”. Moreover, the “Effect on blood pressure in normal rats” value in series [2] (male Wistar-Kyoto rats, oral, 1 µg/kg three times a week for 8 weeks, Fig. 3) is recorded as “no influence on blood pressure”; in series [2] (normal rats, dose range of 1 to 100 µg/kg), “no change in blood pressure”. The body weight result in series [2] (setting [3]) is reported as “no significant changes”. Besides, the heart rate entry in series [2] (setting [3]) is listed as “no significant changes”. Moreover, the LD50 at 168 h in the series “Acute toxicity” (ip, intraperitoneal, read-out: intraperitoneal LD50 value) came to 54 mg/kg; in “Acute toxicity” (oral by gastric tube, read-out: oral LD50 value) it was 1500 mg/kg.
